Assay results from ChEMBL document CHEMBL1671721, “Chemical validation of phosphodiesterase C as a chemotherapeutic target in Trypanosoma cruzi, the etiological agent of Chagas' disease” (Antimicrob Agents Chemother, 2010).
The source made the active and inactive calls. The calls are words filed in the database; no cut-off is given here.

Key:
[1] = Cytotoxicity against rat L6E9 myoblasts at >10 uM
[2] = Cytotoxicity against rat L6E9 myoblasts at 1 to 25 uM
[3] = target: T1, Cyclic nucleotide specific phosphodiesterase (Trypanosoma cruzi, UniProt Q53I59); assay: Inhibition of Trypanosoma cruzi Y PDEC after 30 mins
T1 sequence (Q53I59 whole entry): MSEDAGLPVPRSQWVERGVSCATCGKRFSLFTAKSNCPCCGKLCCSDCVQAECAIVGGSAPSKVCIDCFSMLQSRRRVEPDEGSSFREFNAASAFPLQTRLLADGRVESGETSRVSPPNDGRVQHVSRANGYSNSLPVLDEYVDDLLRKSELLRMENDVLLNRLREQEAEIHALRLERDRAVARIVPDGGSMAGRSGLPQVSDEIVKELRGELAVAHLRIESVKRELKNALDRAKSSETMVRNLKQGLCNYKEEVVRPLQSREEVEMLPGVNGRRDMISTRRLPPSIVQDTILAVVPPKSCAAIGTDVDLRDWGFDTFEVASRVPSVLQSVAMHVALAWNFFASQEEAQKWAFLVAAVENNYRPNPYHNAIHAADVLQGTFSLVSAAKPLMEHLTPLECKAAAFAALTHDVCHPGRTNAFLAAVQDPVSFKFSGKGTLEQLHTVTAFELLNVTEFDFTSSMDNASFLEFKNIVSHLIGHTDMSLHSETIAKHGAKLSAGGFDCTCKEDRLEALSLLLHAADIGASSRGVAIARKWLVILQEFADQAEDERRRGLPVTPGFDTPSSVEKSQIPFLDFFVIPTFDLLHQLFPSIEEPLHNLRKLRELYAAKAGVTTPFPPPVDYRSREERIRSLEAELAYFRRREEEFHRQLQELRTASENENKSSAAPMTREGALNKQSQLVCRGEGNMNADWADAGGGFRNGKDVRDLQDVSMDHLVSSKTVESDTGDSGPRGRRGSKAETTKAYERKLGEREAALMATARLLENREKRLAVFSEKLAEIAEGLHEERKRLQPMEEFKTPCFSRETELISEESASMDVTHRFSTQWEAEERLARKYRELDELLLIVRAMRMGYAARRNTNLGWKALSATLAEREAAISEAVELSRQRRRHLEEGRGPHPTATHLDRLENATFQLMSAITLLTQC

[4] = Cytotoxicity against rat L6E9 myoblasts at >25 uM
Trypanosoma cruzi [5] = assay: Antimicrobial activity against Trypanosoma cruzi infected in rat L6E9 myoblasts assessed as inhibition of [3H]uracil incorporation by giemsa staining; details: L6E9, 3 h
Trypanosoma cruzi [6] = assay: Antimicrobial activity against Trypanosoma cruzi Y infected in rat L6E9 myoblasts assessed as inhibition of [5,6-3H]uracil incorporation after 3 days postinfection by scintillation counter; assay type: functional, organism-based
Phosphodiesterase 4 = Phosphodiesterase 4 (Homo sapiens, UniProt P27815+Q08499+Q07343+Q08493); assay: Inhibition of human PDE4 after 30 mins; assay type: protein assay
[7] = target: T2, Cyclic nucleotide specific phosphodiesterase (Trypanosoma cruzi) (UniProt Q53I59); assay: Inhibition of Trypanosoma cruzi Y PDEC assessed as cAMP accumulation at 43 uM after 1 to 5 mins by luminescence spectrophotometry
T2 sequence (whole entry): T1 sequence (Q53I59 whole entry)

[8] = target: T2, Cyclic nucleotide specific phosphodiesterase (Trypanosoma cruzi); assay: Inhibition of Trypanosoma cruzi Y PDEC assessed as cAMP accumulation at 90 uM after 1 to 5 mins by luminescence spectrophotometry
[9] = target: T2, Cyclic nucleotide specific phosphodiesterase (Trypanosoma cruzi); assay: Inhibition of Trypanosoma cruzi Y PDEC assessed as cAMP accumulation at 26 uM after 1 to 5 mins by luminescence spectrophotometry
[10] = target: T2, Cyclic nucleotide specific phosphodiesterase (Trypanosoma cruzi); assay: Inhibition of Trypanosoma cruzi Y PDEC assessed as cAMP accumulation at 4.5 to 45 uM after 1 to 5 mins by luminescence spectrophotometry
[11] = target: T2, Cyclic nucleotide specific phosphodiesterase (Trypanosoma cruzi); assay: Inhibition of Trypanosoma cruzi Y PDEC assessed as decrease in osmolarity preincubated with 8.7 uM compound measured after 10 mins by light scattering
[12] = target: T2, Cyclic nucleotide specific phosphodiesterase (Trypanosoma cruzi); assay: Inhibition of Trypanosoma cruzi Y PDEC assessed as volume recovery preincubated with 8.7 uM compound measured after 10 mins by light scattering
Trypanosoma cruzi [13] = assay: Antimicrobial activity against Trypanosoma cruzi Y infected in L6E9 myoblasts assessed as inhibition of [3H]uracil incorporation at 1 uM after 3 hrs postinfection by scintillation counter; assay type: functional; design: scale not given: the % may be the effect or the level left
Trypanosoma cruzi [14] = assay: Antimicrobial activity against Trypanosoma cruzi Y infected in L6E9 myoblasts assessed as inhibition of [3H]uracil incorporation at 25 uM after 3 hrs postinfection by scintillation counter; assay type: functional; design: scale not given: the % may be the effect or the level left

Row | Structure (SMILES) | Activity [2] | IC50 [3] [µM] | Activity [4] | further results
1 | O=C(Cn1nnc(N2CCCC2)n1)N/N=C/c1ccncc1 | Non-toxic | > 10 |  | Activity [1]: Toxic
2 | CSc1noc(-c2ccc(S(=O)(=O)NCc3ccccc3)s2)c1C#N | Non-toxic | 4.3 | Toxic | 
3 | CC1CS(=O)(=O)CCN1/N=C/c1ccc([N+](=O)[O-])o1 (stereo not given) [NIFURTIMOX] |  |  |  | IC50 (Trypanosoma cruzi [5]): 2.8 µM
4 | O=C(Nc1csc2ccccc12)NC1Cc2ccccc2C1 | Non-toxic | > 10 | Toxic | 
5 | O=C(Cn1ccnc1[N+](=O)[O-])NCc1ccccc1 [BENZNIDAZOLE] |  |  |  | IC50 (Trypanosoma cruzi [5]): 3.7 µM
6 | O=S(=O)(Cc1noc(CSc2ccc(Cl)cc2)n1)c1ccccn1 | Non-toxic | > 10 |  | Activity [1]: Toxic
7 | CCOC(=O)c1csc(COc2ccc(C3SCCS3)cc2)n1 | Non-toxic | > 10 | Toxic | 
8 | CCCC(=O)c1ccc(OC2CCN(C(=O)OC(C)(C)C)CC2)c(OC)c1 | Non-toxic | 6.5 |  | IC50 (Trypanosoma cruzi [6]): 3.3 µM; IC50 (Phosphodiesterase 4): 29 µM; inhibition [7]: Active; inhibition [8]: Active; inhibition [9]: Active; inhibition [10]: Active; inhibition [11]: inactive; inhibition [12]: inactive
9 | O=C1c2ccccc2C(=O)N1Cc1csc(-c2cccs2)n1 |  | 4.1 |  | Activity (Trypanosoma cruzi [13]): 51%; Activity (Trypanosoma cruzi [14]): 98%
